Test results taken from US8664249B2, “Tetrasubstituted benzenes” (EnVivo Pharmaceuticals, Inc., priority 2007, dated 2014).

Tests used:
[1] = tested on: Aβ; test: In vivo Aβ lowering in C57BL/6 mice (FIG. 1); design: species or system mouse; details: one dose at 30 mg/kg in Solutol HS 15:Ethanol:Water (15:10:75), Aβ measured at 3 hours
Text: Practitioners will also know that similar methods can also be applied to other species such as mice (including transgenic strains such as Tg2576), guinea pig, dog and monkey.

[2] = target: γ-secretase (Homo sapiens, UniProt P49768); test: Aβ42 lowering in HEK-293 cells overexpressing APP (ELISA of conditioned medium); assay type: cell-based
Procedure: Transfected cells overexpressing β-APP or its equivalent producing the Aβ peptide can be used to monitor the effects of synthetic compounds on the production of Aβ.
To analyze a compound's effects on the concentrations of the various products of the γ-secretase cleavage activity, the Aβ peptides, various methods known to a person skilled in the art are available.
Cells were grown to approximately 70-80% confluency subsequent to the addition of test compounds. The growth media was aspirated or removed, the cells washed, and replaced with 100 μl of compound, appropriately diluted in serum free media. The plates are then incubated for 16-18 hours at 37° C.
Conditioned Medium samples are removed for analysis/quantitation of the various Aβ peptide levels by differential ELISA's as described in accompanying instructions to the kits.

Structure (SMILES) | melting point [°C] | other results
CC(C)CC(C(=O)O)c1cc(Cl)c(-c2ccc(C(F)(F)F)cc2)c(OCC2CC2)c1 (centres unmarked) [Example 1904, 2-(2-Chloro-6-cyclopropylmethoxy-4′-trifluoromethyl-biphenyl-4-yl)-4-methyl-pentanoic acid] | 115 to 116 | –
CC(C)c1ccc(-c2cc(C(CC3CC3)C(=O)O)cc(Cl)c2OCC(F)(F)F)cc1 (centres unmarked) [Example 1301, 2-(5-chloro-4′-isopropyl-6-(2,2,2-trifluoroethoxy)biphenyl-3-yl)-3-cyclopropylpropanoic acid] | – | effect on Aβ after administration [1]: desirable effect on Aβ
CC(C)CC(C(=O)O)c1cc(OCC2CC2)c(-c2ccc(C(F)(F)F)cc2)cc1F (centres unmarked) [Example 724, 2-(2-cyclopropylmethoxy-5-fluoro-4′-trifluoromethyl-biphenyl-4-yl)-4-methyl-pentanoic acid] | 110 to 111 | –
O=C(O)C1(c2cc(Cl)c(-c3ccc(C(F)(F)F)cc3)c(OCC(F)(F)F)c2)CCCC1 [Example 1837, 1-(2-chloro-6-(2,2,2-trifluoroethoxy)-4′-(trifluoromethyl)biphenyl-4-yl)cyclopentanecarboxylic acid] | – | EC50 [2]: < 1 µM
CC(C)CC(C(=O)O)c1cc(-c2ccc(C(F)(F)F)cc2)c(OCC2CC2)c(C(F)(F)F)c1 (centres unmarked) [Example 1055, 2-(6-Cyclopropylmethoxy-5,4′-bis-trifluoromethyl-biphenyl-3-yl)-4-methyl-pentanoic Acid] | 148 to 149 | –
CC(C)CC(C(=O)O)c1cc(OCC2CC2)c(-c2ccc3nonc3c2)cc1F (centres unmarked) [Example 754, 2-(4-(benzo[c][1,2,5]oxadiazol-5-yl)-5-(cyclopropylmethoxy)-2-fluorophenyl)-4-methylpentanoic acid] | 110 to 111 | –
CC(C)CC(C(=O)O)c1cc(Cl)c(-c2ccc(Cl)c(Cl)c2)c(OCC2CC2)c1 (centres unmarked) [Example 3201, 4-Methyl-2-(2,3′,4′-trichloro-6-cyclopropylmethoxy-biphenyl-4-yl)-pentanoic acid] | 118 to 119 | –
CC(C)CC(C(=O)O)c1cc(Cl)c(-c2ccc(Cl)cc2)c(OCC2CC2)c1 (centres unmarked) [Example 3200, 2-(2,4′-Dichloro-6-cyclopropylmethoxy-biphenyl-4-yl)-4-methyl-pentanoic acid] | 52 to 53 | –
